US20250114387A1, “PHARMACEUTICAL COMPOSITION COMPRISING ENAVOGLIFLOZIN FOR PREVENTING OR TREATING OBESITY IN CANINE ANIMALS” (DAEWOONG PHARMACEUTICAL CO., LTD., priority 2022, published 2025)

Columns and labels:
[1] = Non-clinical toxicity test: 39 weeks repeated oral administration, changes in body weight; assay type: in vivo, beagles
[2] = system: obese dogs; assay: Clinical trial in obese dogs: hematological tests; assay type: in vivo
Method: (§1) A total of 20 dogs were selected and divided into 4 groups with 5 dogs in each group: a normal obese control (OC); hereinafter, referred to as a control (OC)), an enavogliflozin 0.2-administered group, an enavogliflozin 0.5-administered group, and an enavogliflozin 1-administered group. The control was fed regular feed, and the enavogliflozin-administered groups were fed regular feed supplemented with enavogliflozin at doses of 0.2, 0.5, or 1 mg/kg, respectively. The feed was supplemented with enavogliflozin once a day for 8 weeks and given orally.
Hematological tests were performed on the day before the first administration of enavogliflozin and once every two weeks for the next 10 weeks. A portion of the blood collected on the day of the test was stored in a CBC tube containing the anticoagulant EDTA-2K to assess a red blood cell (RBC) count, hematocrit (Hct), a hemoglobin (Hb) concentration, a white blood cell (WBC) count, and a platelet (PLT) count using an automated hematology analyzer (ADVIA 2120i™, Siemens Healthcare Diagnostics, Vienna, Austria).

[3] = system: obese dogs; assay: Clinical trial in obese dogs: serum biochemical parameters; assay type: in vivo; details: for ALB / ALP / ALT / AST / BUN / CPK / CRE / GGT / Glu / TC / TP / TG: serum
Method: as §1
Biological analysis was performed as follows. A portion of the blood collected on the day of the test was transferred to a vacuum tube containing a coagulation activator, left at room temperature for 15 to 20 minutes to solidify, and then centrifuged at 3000 rpm, thereby obtaining serum. Serum biochemical parameters were evaluated using a Hitachi 7180 device (Hitachi, Tokyo, Japan). The evaluated biochemical parameters are aspartate aminotransferase (AST), alanine aminotransferase (ALT), alkaline phosphatase (ALP), creatine phosphokinase (CPK), total bilirubin (TBIL), glucose (GLU), total cholesterol (TC), triglycerides (TG), total protein (TP), albumin (ALB), gamma-glutamyl transpeptidase (GGT), blood urea nitrogen (BUN), creatinine (CRE), inorganic phosphorus (IP), calcium (Ca), and C-reactive protein (CRP).

[4] = Non-clinical toxicity test: 13 weeks repeated oral administration, changes in body weight; assay type: in vivo, beagles
Method: Changes in body weight were confirmed after administering enavogliflozin to four female and four male 6-month-old normal beagles at 0 (control, gelatin capsule), 1, 3, and 6 mg/kg/day for 13 weeks. The above amounts of enavogliflozin were charged in a gelatin capsule and administered daily.

[5] = system: obese dogs; assay: Clinical trial in obese dogs: feed intake; assay type: in vivo; details: for feed intake compared to the control (OC): during the 10-week experimental period
Method: as §1, with “The feed was supplemented with enavogliflozin once a day for 8 weeks and given orally.” left out

[6] = normal female beagles, 1 mg/kg/day oral
[7] = normal female beagles, 3 mg/kg/day oral
[8] = normal female beagles, 6 mg/kg/day oral
[9] = normal male beagles, 1 mg/kg/day oral
[10] = normal male beagles, 3 mg/kg/day oral
[11] = normal male beagles, 6 mg/kg/day oral
[12] = 0.2 mg/kg once a day oral for 8 weeks
[13] = 0.5 mg/kg once a day oral for 8 weeks
[14] = 1 mg/kg once a day oral for 8 weeks
[15] = obese dogs, 0.2 mg/kg once a day oral for 8 weeks
[16] = obese dogs, 0.5 mg/kg once a day oral for 8 weeks
[17] = obese dogs, 1 mg/kg once a day oral for 8 weeks

OC[C@H]1O[C@@H](c2cc(Cc3ccc(C4CC4)cc3)c(Cl)c3c2CCO3)[C@H](O)[C@@H](O)[C@@H]1O [Enavogliflozin, enavogliflozin]
body weight decrease [1, 6]: 7.6%
body weight decrease [1, 7]: 11.8%
body weight decrease [1, 8]: 11.3%
body weight decrease [1, 9]: 9.1%
body weight decrease [1, 10]: 12.7%
body weight decrease [1, 11]: 21.0%
Hb [2, 12]: 16.34 ± 2.68 g/dL
Hct [2, 12]: 49.86 ± 7.08%
Platelet [2, 12]: 392.20 ± 11.16 ×10^3/μL
RBC [2, 12]: 6.92 ± 0.79 ×10^6 μL
WBC [2, 12]: 11.12 ± 3.69 ×10^3 μL
Hb [2, 13]: 16.40 ± 0.70 g/dL
Hct [2, 13]: 50.26 ± 1.94%
Platelet [2, 13]: 307.40 ± 6.02 ×10^3/μL
WBC [2, 13]: 7.75 ± 2.04 ×10^3 μL
Hb [2, 14]: 16.16 ± 2.15 g/dL
Hct [2, 14]: 46.76 ± 6.13%
Platelet [2, 14]: 299.10 ± 7.65 ×10^3/μL
RBC [2, 14]: 6.55 ± 1.08 ×10^6 μL
WBC [2, 14]: 10.01 ± 3.35 ×10^3 μL
platelet (PLT) count compared to the control (OC) ([2]; 1 mg/kg, p<0.05): significantly lower than that of the control (OC)
hematological indicators, differences between the administration groups ([2]; 10-week trial period, except for the platelet (PLT) count): no significant differences
C-reactive protein (CRP) compared to the control (OC) ([3]; obese dogs, 0.2 mg/kg): significantly decreased
alanine aminotransferase (ALT) compared to the control (OC) ([3]; obese dogs, 0.2 mg/kg): significantly decreased
alkaline phosphatase (ALP) compared to the control (OC) ([3]; obese dogs, 0.2 mg/kg): significantly decreased
creatine phosphokinase (CPK) compared to the control (OC) ([3]; obese dogs, 0.2 mg/kg): significantly decreased
serum gamma-glutamyl transpeptidase (GGT) compared to the control (OC) ([3]; obese dogs, 0.2 mg/kg): significantly decreased
serum total cholesterol (TC) compared to the control (OC) ([3]; obese dogs, 0.2 mg/kg): lower than those of the control (OC)
triglyceride (TG) concentration compared to the control (OC) ([3]; obese dogs, 0.2 mg/kg): lower than those of the control (OC)
glucose (GLU) concentration compared to the control (OC) ([3]; obese dogs, 1 mg/kg): significantly lower
serum triglyceride (TG) concentrations compared to the control ([3]; obese dogs, 0.2, 0.5 and 1 mg/kg groups): significantly lower than that of the control
fasting glucose compared to the control (OC) ([3]; obese dogs, all administration groups): decreased compared to the control (OC)
ALB [3, 15]: 3.48 ± 0.42 g/dL
ALP [3, 15]: 84.60 ± 63.96 IU/L
ALT [3, 15]: 18.84 ± 4.00 IU/L
AST [3, 15]: 31.00 ± 1.83 IU/L
BUN [3, 15]: 18.70 ± 10.29 mg/dL
CPK [3, 15]: 111.12 ± 30.97 IU/L
CRE [3, 15]: 0.78 ± 0.21 mg/dL
GGT [3, 15]: 7.80 ± 1.64 IU/L
Glu [3, 15]: 107.20 ± 10.85 mg/dL
TC [3, 15]: 183.84 ± 36.01 mg/dL
TP [3, 15]: 6.78 ± 0.66 g/dL
TG ([3]; obese dogs, 0.2 mg/kg once a day oral for 8 weeks, 0.2 mg/kg): 142.00 ± 95.55 mg/dL
TG ([3]; obese dogs, 0.2 mg/kg once a day oral for 8 weeks, listed as enavogliflozin, 0.2 mg/kg): 142.00 ± 95.55 mg/dL
ALB [3, 16]: 2.95 ± 0.19 g/dL
ALP [3, 16]: 146.20 ± 121.67 IU/L
ALT [3, 16]: 36.80 ± 14.43 IU/L
AST [3, 16]: 31.84 ± 12.92 IU/L
BUN [3, 16]: 22.25 ± 8.64 mg/dL
CPK [3, 16]: 136.50 ± 42.99 IU/L
CRE [3, 16]: 0.82 ± 0.15 mg/dL
GGT [3, 16]: 9.46 ± 5.37 IU/L
Glu [3, 16]: 97.77 ± 10.19 mg/dL
TC [3, 16]: 298.00 ± 71.14 mg/dL
TP [3, 16]: 6.43 ± 0.32 g/dL
TG ([3]; obese dogs, 0.5 mg/kg once a day oral for 8 weeks, 0.5 mg/kg): 133.86 ± 70.19 mg/dL
TG ([3]; obese dogs, 0.5 mg/kg once a day oral for 8 weeks, listed as enavogliflozin, 0.5 mg/kg): 133.86 ± 70.19 mg/dL
ALB [3, 17]: 2.92 ± 0.29 g/dL
ALP [3, 17]: 186.20 ± 184.59 IU/L
ALT [3, 17]: 38.60 ± 19.72 IU/L
AST [3, 17]: 110.00 ± 167.92 IU/L
BUN [3, 17]: 23.44 ± 13.17 mg/dL
CPK [3, 17]: 260.40 ± 126.79 IU/L
CRE [3, 17]: 0.92 ± 0.36 mg/dL
GGT [3, 17]: 21.60 ± 29.36 IU/L
Glu [3, 17]: 94.00 ± 13.47 mg/dL
TC [3, 17]: 309.00 ± 129.40 mg/dL
TP [3, 17]: 6.14 ± 0.54 g/dL
TG ([3]; obese dogs, 1 mg/kg once a day oral for 8 weeks, 1 mg/kg): 282.60 ± 419.03 mg/dL
TG ([3]; obese dogs, 1 mg/kg once a day oral for 8 weeks, listed as enavogliflozin, 1 mg/kg): 282.60 ± 419.03 mg/dL
body weight decrease compared to the control [4, 6]: 19.6%
body weight decrease compared to the control [4, 7]: 18.5%
body weight decrease compared to the control [4, 8]: 33.2%
body weight decrease compared to the control [4, 9]: 17.7%
body weight decrease compared to the control [4, 10]: 16%
body weight decrease compared to the control [4, 11]: 29.9%
Change rates of food consumption ([5]; 0.2 mg/kg once a day oral for 8 weeks, week 0): 100.00 ± 0.00%
Change rates of food consumption ([5]; 0.2 mg/kg once a day oral for 8 weeks, week 2): 126.52 ± 5.48 %
Change rates of food consumption ([5]; 0.2 mg/kg once a day oral for 8 weeks, week 4): 146.64 ± 5.37 %
Change rates of food consumption ([5]; 0.2 mg/kg once a day oral for 8 weeks, week 6): 153.71 ± 4.11 %
Change rates of food consumption ([5]; 0.2 mg/kg once a day oral for 8 weeks, week 8): 168.32 ± 4.80 %
Change rates of food consumption ([5]; 0.2 mg/kg once a day oral for 8 weeks, week 10, 0.2 mg/kg): 166.59 ± 4.72 %
Change rates of food consumption ([5]; 0.2 mg/kg once a day oral for 8 weeks, week 10, listed as enavogliflozin, 0.2 mg/kg): 166.59±4.72%
feed intake compared to the control (OC) ([5]; 0.2 mg/kg, p<0.001): significantly increased
Change rates of food consumption ([5]; 0.5 mg/kg once a day oral for 8 weeks, week 0): 100.00 ± 0.00%
Change rates of food consumption ([5]; 0.5 mg/kg once a day oral for 8 weeks, week 2): 95.13 ± 1.67 %
Change rates of food consumption ([5]; 0.5 mg/kg once a day oral for 8 weeks, week 4): 92.34 ± 2.10 %
Change rates of food consumption ([5]; 0.5 mg/kg once a day oral for 8 weeks, week 6): 92.30 ± 1.60 %
Change rates of food consumption ([5]; 0.5 mg/kg once a day oral for 8 weeks, week 8): 93.64 ± 1.67 %
Change rates of food consumption ([5]; 0.5 mg/kg once a day oral for 8 weeks, week 10, 0.5 mg/kg): 98.47 ± 1.44%
Change rates of food consumption ([5]; 0.5 mg/kg once a day oral for 8 weeks, week 10, listed as enavogliflozin, 0.5 mg/kg): 98.47±1.44%
feed intake compared to the control (OC) ([5]; 0.5 mg/kg): decreased
Change rates of food consumption ([5]; 1 mg/kg once a day oral for 8 weeks, week 0): 100.00 ± 0.00%
Change rates of food consumption ([5]; 1 mg/kg once a day oral for 8 weeks, week 2): 100.80 ± 4.20%
Change rates of food consumption ([5]; 1 mg/kg once a day oral for 8 weeks, week 4): 116.02 ± 3.09 %
Change rates of food consumption ([5]; 1 mg/kg once a day oral for 8 weeks, week 6): 121.84 ± 2.50 %
Change rates of food consumption ([5]; 1 mg/kg once a day oral for 8 weeks, week 8): 121.88 ± 2.36 %
Change rates of food consumption ([5]; 1 mg/kg once a day oral for 8 weeks, week 10, 1 mg/kg): 123.15 ± 2.45 %
Change rates of food consumption ([5]; 1 mg/kg once a day oral for 8 weeks, week 10, listed as enavogliflozin, 1 mg/kg): 123.15±2.45%
feed intake compared to the control (OC) ([5]; 1 mg/kg, p<0.001): significantly increased
